Laboratory results published in ChEMBL document CHEMBL3045104, “Synthesis and antibacterial activity of 4-benzoyl-1-(4-carboxy-phenyl)-5-phenyl-1H-pyrazole-3-carboxylic acid and derivatives” (2009).
Converted amounts (≈) assume the structure as drawn. The source made the active and inactive calls. No cut-off for these calls is given here.

Legend:
Format in all cases: functional
Streptococcus pyogenes = assay: Antimicrobial activity against Streptococcus pyogenes ATCC 176 after overnight incubation by microdilution broth susceptibility assay
Bacillus subtilis = assay: Antimicrobial activity against Bacillus subtilis ATCC 6633 after overnight incubation by microdilution broth susceptibility assay
Escherichia coli = assay: Antimicrobial activity against Escherichia coli B3704 after overnight incubation by microdilution broth susceptibility assay
Salmonella enteritidis = assay: Antimicrobial activity against Salmonella enterica subsp. enterica serovar Enteritidis ATCC 1376 after overnight incubation by microdilution broth susceptibility assay
Proteus vulgaris = assay: Antimicrobial activity against Proteus vulgaris Kuk. 1329 after overnight incubation by microdilution broth susceptibility assay
Xanthomonas campestris = assay: Antimicrobial activity against Xanthomonas campestris A235 after overnight incubation by microdilution broth susceptibility assay
Staphylococcus aureus = assay: Antimicrobial activity against Staphylococcus aureus ATCC 29213 after overnight incubation by microdilution broth susceptibility assay
Enterococcus faecalis = assay: Antimicrobial activity against Enterococcus faecalis ATCC 29122 after overnight incubation by microdilution broth susceptibility assay
Pseudomonas aeruginosa = assay: Antimicrobial activity against Pseudomonas aeruginosa ATCC 9027 after overnight incubation by microdilution broth susceptibility assay
Klebsiella pneumoniae = assay: Antimicrobial activity against Klebsiella pneumoniae A137 after overnight incubation by microdilution broth susceptibility assay

| SMILES | MIC (Streptococcus pyogenes) | MIC (Bacillus subtilis) | MIC (Escherichia coli) [µM] | MIC (Salmonella enteritidis) | MIC (Proteus vulgaris) | MIC (Xanthomonas campestris) | MIC (Staphylococcus aureus) | MIC (Enterococcus faecalis) | MIC (Pseudomonas aeruginosa) | MIC (Klebsiella pneumoniae) [µM] |
| --- | --- | --- | --- | --- | --- | --- | --- | --- | --- | --- |
| O=C(O)c1ccc(-n2nc3c(=O)[nH]nc(-c4ccccc4)c3c2-c2ccccc2)cc1 | inactive | 313 µM (≈ 128 µg/mL) | 157 (≈ 64.1 µg/mL) | inactive | 157 µM (≈ 64.1 µg/mL) | 313 µM (≈ 128 µg/mL) | inactive | inactive | 157 µM (≈ 64.1 µg/mL) | 157 (≈ 64.1 µg/mL) |
| CCCCOC(=O)c1ccc(-n2nc(C(=O)OCCCC)c(C(=O)c3ccccc3)c2-c2ccccc2)cc1 | inactive | 122 µM (≈ 64 µg/mL) | 122 (≈ 64 µg/mL) | inactive | inactive | 244 µM (≈ 128 µg/mL) | inactive | inactive | inactive | 122 (≈ 64 µg/mL) |
| NC(=O)c1ccc(-n2nc(C(N)=O)c(C(=O)c3ccccc3)c2-c2ccccc2)cc1 | inactive | inactive | 156 (≈ 64 µg/mL) | inactive | inactive | inactive | inactive | inactive | inactive | 156 (≈ 64 µg/mL) |
| CCCCCNC(=O)c1ccc(-n2nc(C(=O)NCCCCC)c(C(=O)c3ccccc3)c2-c2ccccc2)cc1 | inactive | 232 µM (≈ 128 µg/mL) | 116 (≈ 63.9 µg/mL) | inactive | inactive | inactive | inactive | inactive | inactive | 116 (≈ 63.9 µg/mL) |
| O=C(O)c1ccc(N/N=C(\c2ccccc2)c2c(-c3ccccc3)nn(-c3ccc(C(=O)O)cc3)c(=O)c2O)cc1 | inactive | inactive | 117 (≈ 63.9 µg/mL) | inactive | inactive | inactive | inactive | inactive | inactive | 117 (≈ 63.9 µg/mL) |
| O=C(O)c1ccc(-n2nc3c(=O)n(-c4ccc(C(=O)O)cc4)nc(-c4ccccc4)c3c2-c2ccccc2)cc1 | inactive | 242 µM (≈ 128 µg/mL) | 121 (≈ 64 µg/mL) | inactive | inactive | inactive | inactive | inactive | 242 µM (≈ 128 µg/mL) | 121 (≈ 64 µg/mL) |
| Cn1nc(-c2ccccc2)c2c(-c3ccccc3)n(-c3ccc(C(=O)O)cc3)nc2c1=O | inactive | 303 µM (≈ 128 µg/mL) | 152 (≈ 64.2 µg/mL) | inactive | inactive | 303 µM (≈ 128 µg/mL) | inactive | inactive | 303 µM (≈ 128 µg/mL) | 152 (≈ 64.2 µg/mL) |
| O=C(O)c1ccc(-n2nc3c(=O)n(-c4ccccc4)nc(-c4ccccc4)c3c2-c2ccccc2)cc1 | inactive | 264 µM (≈ 128 µg/mL) | 132 (≈ 64 µg/mL) | inactive | inactive | 264 µM (≈ 128 µg/mL) | inactive | inactive | 132 µM (≈ 64 µg/mL) | 132 (≈ 64 µg/mL) |
| O=C(NC(=O)c1ccc(-n2nc(C(=O)NC(=O)Nc3ccccc3)c(C(=O)c3ccccc3)c2-c2ccccc2)cc1)Nc1ccccc1 | inactive | 197 µM (≈ 128 µg/mL) | 99 (≈ 64.2 µg/mL) | inactive | inactive | inactive | inactive | inactive | inactive | 99 (≈ 64.2 µg/mL) |
| CNC(=O)NC(=O)c1ccc(-n2nc(C(=O)NC(=O)NC)c(C(=O)c3ccccc3)c2-c2ccccc2)cc1 | inactive | 244 µM (≈ 128 µg/mL) | 122 (≈ 64 µg/mL) | inactive | inactive | inactive | inactive | inactive | inactive | 122 (≈ 64 µg/mL) |
| O=C(O)c1ccc(-n2nc(C(=O)O)c(C(=O)c3ccccc3)c2-c2ccccc2)cc1 | inactive | 310 µM (≈ 128 µg/mL) | 155 (≈ 63.9 µg/mL) | inactive | inactive | 78 µM (≈ 32.2 µg/mL) | 310 µM (≈ 128 µg/mL) | inactive | inactive | 155 (≈ 63.9 µg/mL) |
| CCN(CC)C(=O)c1ccc(-n2nc(C(=O)N(CC)CC)c(C(=O)c3ccccc3)c2-c2ccccc2)cc1 | inactive | 245 µM (≈ 128 µg/mL) | 123 (≈ 64.3 µg/mL) | inactive | inactive | 245 µM (≈ 128 µg/mL) | inactive | inactive | inactive | 123 (≈ 64.3 µg/mL) |
| CC(C)OC(=O)c1ccc(-n2nc(C(=O)OC(C)C)c(C(=O)c3ccccc3)c2-c2ccccc2)cc1 | inactive | 129 µM (≈ 64.1 µg/mL) | 129 (≈ 64.1 µg/mL) | inactive | inactive | 258 µM (≈ 128 µg/mL) | inactive | inactive | inactive | 129 (≈ 64.1 µg/mL) |
| O=C(NCc1ccccc1)NC(=O)c1ccc(-n2nc(C(=O)NC(=O)NCc3ccccc3)c(C(=O)c3ccccc3)c2-c2ccccc2)cc1 | inactive | 189 µM (≈ 128 µg/mL) | 95 (≈ 64.3 µg/mL) | inactive | inactive | inactive | inactive | inactive | inactive | 95 (≈ 64.3 µg/mL) |

Further lines, results first:

| MIC (Streptococcus pyogenes) | MIC (Bacillus subtilis) | MIC (Escherichia coli) [µM] | MIC (Salmonella enteritidis) | MIC (Proteus vulgaris) | MIC (Xanthomonas campestris) | MIC (Staphylococcus aureus) | MIC (Enterococcus faecalis) | MIC (Pseudomonas aeruginosa) | MIC (Klebsiella pneumoniae) [µM] | SMILES |
| --- | --- | --- | --- | --- | --- | --- | --- | --- | --- | --- |
| inactive | 171 µM (≈ 64 µg/mL) | 171 (≈ 64 µg/mL) | inactive | inactive | 342 µM (≈ 128 µg/mL) | inactive | inactive | inactive | 171 (≈ 64 µg/mL) | N#Cc1ccc(-n2nc(C#N)c(C(=O)c3ccccc3)c2-c2ccccc2)cc1 |
| 37 µM (≈ 12 µg/mL) | 74 µM (≈ 23.9 µg/mL) | 19 (≈ 6.14 µg/mL) | 74 µM (≈ 23.9 µg/mL) | 74 µM (≈ 23.9 µg/mL) | 37 µM (≈ 12 µg/mL) | 19 µM (≈ 6.14 µg/mL) | 37 µM (≈ 12 µg/mL) | 74 µM (≈ 23.9 µg/mL) | 37 (≈ 12 µg/mL) | O=C(N[C@H](CO)[C@H](O)c1ccc([N+](=O)[O-])cc1)C(Cl)Cl [CHLORAMPHENICOL] |
| inactive | 290 µM (≈ 128 µg/mL) | 145 (≈ 63.9 µg/mL) | inactive | inactive | inactive | inactive | inactive | inactive | 145 (≈ 63.9 µg/mL) | COC(=O)c1ccc(-n2nc(C(=O)OC)c(C(=O)c3ccccc3)c2-c2ccccc2)cc1 |
| inactive | 274 µM (≈ 128 µg/mL) | 137 (≈ 63.9 µg/mL) | inactive | inactive | 274 µM (≈ 128 µg/mL) | inactive | inactive | inactive | 137 (≈ 63.9 µg/mL) | CCNC(=O)c1ccc(-n2nc(C(=O)NCC)c(C(=O)c3ccccc3)c2-c2ccccc2)cc1 |
| inactive | 137 µM (≈ 64.2 µg/mL) | 137 (≈ 64.2 µg/mL) | inactive | inactive | inactive | inactive | inactive | inactive | 137 (≈ 64.2 µg/mL) | CCOC(=O)c1ccc(-n2nc(C(=O)OCC)c(C(=O)c3ccccc3)c2-c2ccccc2)cc1 |
| inactive | inactive | 142 (≈ 63.8 µg/mL) | inactive | inactive | 285 µM (≈ 128 µg/mL) | inactive | inactive | inactive | 142 (≈ 63.8 µg/mL) | O=C(Cl)c1ccc(-n2nc(C(=O)Cl)c(C(=O)c3ccccc3)c2-c2ccccc2)cc1 |
